According to ChEMBL document CHEMBL1212769, “Multiple-dose safety, tolerability, and pharmacokinetics of oral nemonoxacin (TG-873870) in healthy volunteers” (Antimicrob Agents Chemother, 2010):

Key:
[1] = Cmax in human at 500 […], po measured on day 1; assay type: ADME, organism-based; design: dose 500 mg/kg, route oral; conditions: in vivo
[2] = Cmax in human at 75 […], po measured on day 10; assay type: ADME, organism-based; design: dose 75 mg/kg, route oral; conditions: in vivo
[3] = Cmax in human at 500 […], po measured on day 10; assay type: ADME, organism-based; design: dose 500 mg/kg, route oral; conditions: in vivo
[4] = Cmax in human at 750 […], po measured on day 1; assay type: ADME, organism-based; design: dose 750 mg/kg, route oral; conditions: in vivo
[5] = Cmax in human at 750 […], po measured on day 10; assay type: ADME, organism-based; design: dose 750 mg/kg, route oral; conditions: in vivo
[6] = Cmax in human at 1000 […], po measured on day 1; assay type: ADME, organism-based; design: dose 1000 mg/kg, route oral; conditions: in vivo
[7] = Cmax in human at 1000 […], po measured on day 10; assay type: ADME, organism-based; design: dose 1000 mg/kg, route oral; conditions: in vivo
[8] = Tmax in human at 75 […], po measured on day 1; assay type: ADME, organism-based; design: route oral; conditions: in vivo
[9] = Tmax in human at 250 […], po measured on day 1; assay type: ADME, organism-based; design: route oral; conditions: in vivo
[10] = Tmax in human at 75 […], po measured on day 10; assay type: ADME, organism-based; design: dose 75 mg/kg, route oral; conditions: in vivo
[11] = AUC (0 to 24 hrs)in human at 500 mg/kg, po measured on day 10; assay type: ADME, organism-based; design: time < 24 hr, dose 500 mg/kg, route oral; conditions: plasma
[12] = AUC (0 to last) in human at 500 mg/kg, po measured on day 16; assay type: ADME, organism-based; design: time 0 - last, dose 500 mg/kg, route oral; conditions: plasma
[13] = Tmax in human at 250 […], po measured on day 10; assay type: ADME, organism-based; design: dose 250 mg/kg, route oral; conditions: in vivo
[14] = Tmax in human at 500 […], po measured on day 1; assay type: ADME, organism-based; design: route oral; conditions: in vivo
[15] = Tmax in human at 500 […], po measured on day 10; assay type: ADME, organism-based; design: dose 500 mg/kg, route oral; conditions: in vivo
[16] = Tmax in human at 500 […], po measured on day 16; assay type: ADME, organism-based; design: dose 500 mg/kg, route oral; conditions: in vivo
[17] = Tmax in human at 750 […], po measured on day 1; assay type: ADME, organism-based; design: route oral; conditions: in vivo
[18] = Tmax in human at 750 […], po measured on day 10; assay type: ADME, organism-based; design: dose 750 mg/kg, route oral; conditions: in vivo
[19] = Tmax in human at 1000 […], po measured on day 1; assay type: ADME, organism-based; design: route oral; conditions: in vivo
[20] = Tmax in human at 1000 […], po measured on day 10; assay type: ADME, organism-based; design: route oral; conditions: in vivo
[21] = AUC (0 to 24 hrs) in human at 75 mg/kg, po measured on day 1; assay type: ADME, organism-based; design: time < 24 hr, dose 75 mg/kg, route oral; conditions: plasma
[22] = AUC (0 to last) in human at 75 mg/kg, po measured on day 10; assay type: ADME, organism-based; design: time 0 - last, dose 75 mg/kg, route oral; conditions: plasma
[23] = AUC (0 to 24 hrs) in human at 250 mg/kg, po measured on day 1; assay type: ADME, organism-based; design: time < 24 hr, dose 250 mg/kg, route oral; conditions: plasma
[24] = AUC (0 to last) in human at 250 mg/kg, po measured on day 10; assay type: ADME, organism-based; design: time 0 - last, dose 250 mg/kg, route oral; conditions: plasma
[25] = AUC (0 to 24 hrs) in human at 750 mg/kg, po measured on day 1; assay type: ADME, organism-based; design: time < 24 hr, dose 750 mg/kg, route oral; conditions: plasma
[26] = AUC (0 to last) in human at 750 mg/kg, po measured on day 10; assay type: ADME, organism-based; design: time 0 - last, dose 750 mg/kg, route oral; conditions: plasma
[27] = AUC (0 to 24 hrs) in human at 1000 […], po measured on day 1; assay type: ADME, organism-based; design: time < 24 hr, dose 1000 mg/kg, route oral; conditions: plasma
[28] = AUC (0 to last) in human at 1000 […], po measured on day 10; assay type: ADME, organism-based; design: time 0 - last, dose 1000 mg/kg, route oral; conditions: plasma
[29] = Terminal half life in human at 750 […], po measured on day 10; assay type: ADME, organism-based; design: route oral; conditions: in vivo, read-out: beta t1/2 (converted)
[30] = Terminal half life in human at 75 […], po measured on day 10; assay type: ADME, organism-based; design: route oral; conditions: in vivo, read-out: beta t1/2 (converted)
[31] = Terminal half life in human at 500 […], po measured on day 10; assay type: ADME, organism-based; design: route oral; conditions: in vivo, read-out: beta t1/2 (converted)
[32] = Terminal half life in human at 1000 […], po measured on day 10; assay type: ADME, organism-based; design: route oral; conditions: in vivo, read-out: beta t1/2 (converted)
[33] = Terminal half life in human at 250 […], po measured on day 10; assay type: ADME, organism-based; design: route oral; conditions: in vivo, read-out: beta t1/2 (converted)
[34] = Clearance in human assessed as compound recovered in urine at 75 mg/kg, po measured on day 1 up to 24 hrs post dose; assay type: ADME, organism-based; design: dose 75 mg/kg, route oral; conditions: read-out: amount in urine
[35] = Clearance in human assessed as compound recovered in urine at 75 mg/kg, po measured on day 10 up to 24 hrs post dose; assay type: ADME, organism-based; design: dose 75 mg/kg, route oral; conditions: read-out: amount in urine
[36] = Clearance in human assessed as compound recovered in urine at 250 mg/kg, po measured on day 1 up to 24 hrs post dose; assay type: ADME, organism-based; design: dose 250 mg/kg, route oral; conditions: read-out: amount in urine
[37] = Clearance in human assessed as compound recovered in urine at 250 mg/kg, po measured on day 10 up to 24 hrs post dose; assay type: ADME, organism-based; design: dose 250 mg/kg, route oral; conditions: read-out: amount in urine
[38] = Clearance in human assessed as compound recovered in urine at 500 mg/kg, po measured on day 1 up to 24 hrs post dose; assay type: ADME, organism-based; design: dose 500 mg/kg, route oral; conditions: read-out: amount in urine
[39] = Clearance in human assessed as compound recovered in urine at 500 mg/kg, po measured on day 10 up to 24 hrs post dose; assay type: ADME, organism-based; design: dose 500 mg/kg, route oral; conditions: read-out: amount in urine
[40] = Clearance in human assessed as compound recovered in urine at 500 mg/kg, po measured on day 16 up to 24 hrs post dose; assay type: ADME, organism-based; design: dose 500 mg/kg, route oral; conditions: read-out: amount in urine
[41] = Clearance in human assessed as compound recovered in urine at 750 mg/kg, po measured on day 1 up to 24 hrs post dose; assay type: ADME, organism-based; design: dose 750 mg/kg, route oral; conditions: read-out: amount in urine
[42] = Clearance in human assessed as compound recovered in urine at 750 mg/kg, po measured on day 10 up to 24 hrs post dose; assay type: ADME, organism-based; design: dose 750 mg/kg, route oral; conditions: read-out: amount in urine
[43] = Clearance in human assessed as compound recovered in urine at 1000 […], po measured on day 1 up to 24 hrs post dose; assay type: ADME, organism-based; design: dose 1000 mg/kg, route oral; conditions: read-out: amount in urine
[44] = Clearance in human assessed as compound recovered in urine at 1000mg/kg, po measured on day 10 up to 24 hrs post dose; assay type: ADME, organism-based; conditions: read-out: amount in urine
[45] = Oral clearance in human at 75 mg/kg measured on day 1; assay type: ADME, organism-based; design: dose 75 mg/kg; conditions: in vivo
[46] = Oral clearance in human at 75 mg/kg measured on day 10; assay type: ADME, organism-based; design: dose 75 mg/kg; conditions: in vivo
[47] = Oral clearance in human at 250 mg/kg measured on day 1; assay type: ADME, organism-based; design: dose 250 mg/kg; conditions: in vivo
[48] = Oral clearance in human at 250 mg/kg measured on day 10; assay type: ADME, organism-based; design: dose 250 mg/kg; conditions: in vivo
[49] = Oral clearance in human at 500 mg/kg measured on day 1; assay type: ADME, organism-based; design: dose 500 mg/kg; conditions: in vivo
[50] = Oral clearance in human at 500 mg/kg measured on day 10; assay type: ADME, organism-based; design: dose 500 mg/kg; conditions: in vivo
[51] = Oral clearance in human at 500 mg/kg measured on day 16; assay type: ADME, organism-based; design: dose 500 mg/kg; conditions: in vivo
[52] = Oral clearance in human at 1000 […] measured on day 1; assay type: ADME, organism-based; design: dose 1000 mg/kg; conditions: in vivo
[53] = Oral clearance in human at 1000 […] measured on day 10; assay type: ADME, organism-based; design: dose 1000 mg/kg; conditions: in vivo
[54] = Renal clearance in human at 75 […], po measured on day 1; assay type: ADME, organism-based, Kidney; design: route oral; conditions: in vivo, read-out: CL_renal (converted)

Compound: COc1c(N2C[C@@H](C)C[C@H](N)C2)ccc2c(=O)c(C(=O)O)cn(C3CC3)c12 [NEMONOXACIN]
- Cmax [1]: 5120 ng/mL
- Cmax [2]: 514 ng/mL
- Cmax [3]: 5560 ng/mL
- Cmax [4]: 5750 ng/mL
- Cmax [5]: 6820 ng/mL
- Cmax [6]: 7750 ng/mL
- Cmax [7]: 8200 ng/mL
- Tmax [8]: 1.09 h
- Tmax [9]: 1.25 h
- Tmax [10]: 0.92 h
- AUC at 24 h [11]: 38600 ng·h/mL
- AUC(0-t) [12]: 26000 ng·h/mL
- Tmax [13]: 1.09 h
- Tmax [14]: 1 h
- Tmax [15]: 1.31 h
- Tmax [16]: 3.07 h
- Tmax [17]: 1.5 h
- Tmax [18]: 1.51 h
- Tmax [19]: 2 h
- Tmax [20]: 2.07 h
- AUC(0-t) at 24 h [21]: 3780 ng·h/mL
- AUC(0-t) [22]: 5450 ng·h/mL
- AUC(0-t) at 24 h [23]: 13700 ng·h/mL
- AUC(0-t) [24]: 18700 ng·h/mL
- AUC(0-t) at 24 h [25]: 46100 ng·h/mL
- AUC(0-t) [26]: 69300 ng·h/mL
- AUC(0-t) at 24 h [27]: 59600 ng·h/mL
- AUC(0-t) [28]: 88300 ng·h/mL
- half-life [29]: 19.7 h
- half-life [30]: 23 h
- half-life [31]: 18.6 h
- half-life [32]: 19.4 h
- half-life [33]: 17.6 h
- dose excreted at 24 h [34]: 56.4%
- dose excreted at 24 h [35]: 56.7%
- dose excreted at 24 h [36]: 36.8%
- dose excreted at 24 h [37]: 49.9%
- dose excreted at 24 h [38]: 42.2%
- dose excreted at 24 h [39]: 57.8%
- dose excreted at 24 h [40]: 30.5%
- dose excreted at 24 h [41]: 47.1%
- dose excreted at 24 h [42]: 41.8%
- dose excreted at 24 h [43]: 47.9%
- dose excreted at 24 h [44]: 48.6%
- CL/F [45]: 303 mL/min
- CL/F [46]: 224 mL/min
- CL/F [47]: 279 mL/min
- CL/F [48]: 223 mL/min
- CL/F [49]: 242 mL/min
- CL/F [50]: 184 mL/min
- CL/F [51]: 313 mL/min
- CL/F [52]: 262 mL/min
- CL/F [53]: 193 mL/min
- CL renal [54]: 198 mL/min
